Measured values as given in patent publication US12134788B2, “Engineered prephenate dehydrogenases and arogenate dehydrogenases and methods of using the same” (Wisconsin Alumni Research Foundation, priority 2017, dated 2024).

Assays:
[1] = target: T1, GmPDH1 (Gm18g02650), soybean (Glycine max) prephenate dehydrogenase, wild type (Glycine max, UniProt I1MYY4); assay: ADH and PDH assay: steady-state kinetics and Tyr inhibition, GmPDH1 wild type; type: biochemical
T1 construct: homodimer
T1 sequence (I1MYY4 1-271): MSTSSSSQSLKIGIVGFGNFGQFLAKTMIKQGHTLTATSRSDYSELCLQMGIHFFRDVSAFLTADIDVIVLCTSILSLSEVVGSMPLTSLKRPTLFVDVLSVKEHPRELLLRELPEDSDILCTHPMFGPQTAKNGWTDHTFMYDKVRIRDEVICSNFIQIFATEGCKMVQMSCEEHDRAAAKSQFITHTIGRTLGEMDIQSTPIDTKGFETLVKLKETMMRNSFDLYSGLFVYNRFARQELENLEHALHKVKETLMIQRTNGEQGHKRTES
Protocol: (§1) Kinetic parameters of purified recombinant proteins were determined from assays conducted at varying arogenate (19.5 μM-5 mM) and prephenate concentration (23.4 μM-6 mM). Standard assay conditions were 25 mM HEPES pH 7.6, 50 mM KCl and 10% (v/v) ethylene glycol, and 0.5 mM NADP^+ with varied substrate, concentrations. Reactions were initiated by addition of enzyme and incubated at 37° C. monitored every 10-15 seconds at […] using a microplate reader (Tecan Genios). Kinetic parameters were determined by fitting initial velocity data to the Michaelis-Menten equation using the Origin software (OriginLab).
(§2) Arogenate was prepared by enzymatic conversion of prephenate (Sigma-Aldrich) as previously reported^56. For Tyr inhibition assays, Tyr was dissolved in a slightly basic solution (0.025 N NaOH) due to solubility issues, thus the concentration of lysis buffer was increased to 500 mM HEPES final concentration to buffer against the changes by addition of Tyr in the reaction. […]

[2] = target: T2, MtPDH (MtPDH1; Mt3g071980), Medicago truncatula prephenate dehydrogenase, wild type (Medicago truncatula, UniProt A0A0A0R205); assay: ADH and PDH assay: steady-state kinetics and Tyr inhibition, MtPDH wild type; type: biochemical
T2 sequence (A0A0A0R205 1-268): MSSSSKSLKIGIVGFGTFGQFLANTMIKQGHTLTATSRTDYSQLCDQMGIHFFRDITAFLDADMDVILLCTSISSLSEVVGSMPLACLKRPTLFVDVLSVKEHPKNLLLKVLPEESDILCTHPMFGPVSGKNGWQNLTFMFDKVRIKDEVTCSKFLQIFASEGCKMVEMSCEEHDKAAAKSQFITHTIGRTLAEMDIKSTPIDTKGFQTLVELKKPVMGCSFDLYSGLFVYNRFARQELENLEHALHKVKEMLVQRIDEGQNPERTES
Protocol: as §1, §2

[3] = system: Peanut PDH/ADH (AipaensisVYE8T), Arachis ipaensis, wild type; assay: ADH and PDH assay: steady-state kinetics and Tyr inhibition, peanut PDH/ADH; type: biochemical; settings: 0-8 mM L-Tyr
Protocol: as §1
(§3) Arogenate was prepared by enzymatic conversion of prephenate (Sigma-Aldrich) as previously reported^56. For Tyr inhibition assays, Tyr was dissolved in a slightly basic solution (0.025 N NaOH) due to solubility issues, thus the concentration of lysis buffer was increased to 500 mM HEPES final concentration to buffer against the changes by addition of Tyr in the reaction. Reactions containing varying amounts of Tyr (10 μM-8 mM) with 0.5 mM NADP^+ and either 1 mM arogenate or 0.8 mM prephenate were monitored as above.

[4] = target: T3, GmncADH (Gm14g05990), soybean (Glycine max) noncanonical arogenate dehydrogenase, wild type (Glycine max, UniProt I1M7P5); assay: ADH and PDH assay: steady-state kinetics and Tyr inhibition, GmncADH wild type; type: biochemical
T3 construct: wild type
T3 sequence (I1M7P5 1-266): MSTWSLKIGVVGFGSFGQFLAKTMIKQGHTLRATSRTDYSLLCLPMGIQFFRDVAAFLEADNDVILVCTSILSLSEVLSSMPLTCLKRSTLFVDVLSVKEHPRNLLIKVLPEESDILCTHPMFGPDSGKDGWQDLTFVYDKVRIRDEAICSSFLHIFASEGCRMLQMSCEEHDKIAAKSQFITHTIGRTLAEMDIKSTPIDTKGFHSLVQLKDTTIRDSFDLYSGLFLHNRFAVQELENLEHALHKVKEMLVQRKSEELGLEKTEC
Protocol: as §1, §3

[5] = target: T4, MtncADH (Mt5g083530), Medicago truncatula noncanonical arogenate dehydrogenase, wild type (Medicago truncatula, UniProt A0A217FAR3); assay: ADH and PDH assay: steady-state kinetics and Tyr inhibition, MtncADH wild type; type: biochemical; settings: for IC50: IC50^Tyr, 0.5 mM NADP^+
T4 construct: wild type
T4 sequence (A0A217FAR3 1-266): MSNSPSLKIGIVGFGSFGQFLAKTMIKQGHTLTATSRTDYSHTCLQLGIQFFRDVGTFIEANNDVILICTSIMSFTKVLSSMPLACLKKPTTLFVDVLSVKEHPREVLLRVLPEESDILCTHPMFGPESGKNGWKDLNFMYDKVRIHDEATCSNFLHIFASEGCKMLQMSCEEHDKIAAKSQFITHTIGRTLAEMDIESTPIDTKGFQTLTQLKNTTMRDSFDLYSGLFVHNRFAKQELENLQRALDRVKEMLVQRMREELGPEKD
Protocol: as §1, §3

[6] = target: T5, SolyncADH (Slycopersicum06g050630), tomato noncanonical arogenate dehydrogenase, wild type (Solanum lycopersicum, UniProt K4C5K7); assay: ADH and PDH assay: steady-state kinetics and Tyr inhibition, SolyncADH wild type; type: biochemical
T5 construct: wild type
Protocol: as §1, §3

[7] = target: AtADH2 (At1g15710), Arabidopsis thaliana canonical arogenate dehydrogenase, wild type (Arabidopsis thaliana, UniProt Q9LMR3); assay: Tyr inhibition of AtADH2 wild type; type: biochemical; settings: ADH activity, 0-8 mM L-Tyr
Protocol: as §1, §3

[8] = target: Glycine max GmPDH1 variant N222A (Glycine max, UniProt I1MYY4, N222A); assay: ADH and PDH assay: steady-state kinetics and Tyr inhibition, GmPDH1 N222A; type: biochemical, Glycine max (soybean); settings: 0-8 mM L-Tyr
Protocol: as §1, §3

[9] = target: Glycine max GmPDH1 variant M219T/N222D (Glycine max, UniProt I1MYY4, M219T/N222D); assay: ADH and PDH assay: steady-state kinetics and Tyr inhibition, GmPDH1 M219T/N222D; type: biochemical, Glycine max (soybean); settings: IC50^Tyr, 0.5 mM NADP^+
Protocol: as §1, §3

[10] = target: T6, Glycine max GmncADH variant D218N (Glycine max, UniProt I1M7P5, D218N); assay: ADH and PDH assay: steady-state kinetics and Tyr inhibition, GmncADH D218N; type: biochemical, Glycine max (soybean); settings: versus wild-type; ADH activity, 0-8 mM Tyr
T6 construct: D218N by site-directed mutagenesis
Protocol: as §1, §3

[11] = target: Arabidopsis thaliana AtADH2 variant D241N, SEQ ID NO: 12 (Arabidopsis thaliana, UniProt Q9LMR3, D275N); assay: Tyr inhibition of AtADH2 D241N; type: biochemical; settings: versus wild-type; ADH activity, 0-8 mM Tyr
Protocol: as §1, §3

[12] = system: SynADH, Synechocystis sp. PCC 6803 arogenate dehydrogenase; settings: cited from earlier work
[13] = system: AaPDH, A. aeolicus prephenate dehydrogenase; settings: cited from earlier work

Glycine max GmPDH1 variant M219T/N222D, sequence (I1MYY4 1-271 M219T/N222D): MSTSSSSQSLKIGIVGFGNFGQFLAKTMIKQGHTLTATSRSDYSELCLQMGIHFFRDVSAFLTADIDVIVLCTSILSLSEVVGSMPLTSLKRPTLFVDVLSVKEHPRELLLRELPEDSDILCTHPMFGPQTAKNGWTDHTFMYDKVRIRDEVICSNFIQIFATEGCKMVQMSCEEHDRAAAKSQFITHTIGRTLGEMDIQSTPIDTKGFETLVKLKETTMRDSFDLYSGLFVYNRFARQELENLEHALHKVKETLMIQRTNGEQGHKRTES
Arabidopsis thaliana AtADH2 variant D241N, SEQ ID NO: 12, sequence (Q9LMR3 37-358 D275N): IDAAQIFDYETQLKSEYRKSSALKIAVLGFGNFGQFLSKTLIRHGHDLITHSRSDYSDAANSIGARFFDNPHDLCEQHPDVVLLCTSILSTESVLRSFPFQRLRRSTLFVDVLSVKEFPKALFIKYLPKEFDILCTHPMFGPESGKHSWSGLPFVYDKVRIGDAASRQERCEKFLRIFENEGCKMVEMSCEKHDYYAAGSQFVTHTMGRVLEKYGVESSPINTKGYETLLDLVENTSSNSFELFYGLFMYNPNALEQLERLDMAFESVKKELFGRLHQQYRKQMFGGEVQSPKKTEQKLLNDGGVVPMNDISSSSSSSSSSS
T6 sequence (I1M7P5 1-266 D218N): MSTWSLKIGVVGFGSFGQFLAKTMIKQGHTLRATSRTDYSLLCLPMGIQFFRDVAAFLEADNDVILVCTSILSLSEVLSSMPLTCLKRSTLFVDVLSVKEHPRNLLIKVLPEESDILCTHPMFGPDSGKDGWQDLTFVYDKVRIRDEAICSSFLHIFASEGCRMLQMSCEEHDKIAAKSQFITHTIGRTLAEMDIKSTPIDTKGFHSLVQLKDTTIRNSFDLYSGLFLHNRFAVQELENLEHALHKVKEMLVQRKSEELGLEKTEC
T5 sequence (K4C5K7 1-272): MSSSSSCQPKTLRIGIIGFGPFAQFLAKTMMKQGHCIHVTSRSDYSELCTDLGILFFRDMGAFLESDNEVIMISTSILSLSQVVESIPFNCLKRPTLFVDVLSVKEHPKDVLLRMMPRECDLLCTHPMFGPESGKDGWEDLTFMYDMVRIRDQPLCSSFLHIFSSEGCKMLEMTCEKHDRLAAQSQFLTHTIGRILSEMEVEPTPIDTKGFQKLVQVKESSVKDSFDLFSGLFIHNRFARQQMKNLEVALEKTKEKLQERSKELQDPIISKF
AtADH2 (At1g15710), Arabidopsis thaliana canonical arogenate dehydrogenase, wild type, sequence (Q9LMR3 37-358): as the sequence (Q9LMR3 37-358 D275N) above, with N239D counted along it
Glycine max GmPDH1 variant N222A, sequence (I1MYY4 1-271 N222A): as the sequence (I1MYY4 1-271 M219T/N222D) above, with T219M, D222A counted along it

With N[C@@H](Cc1ccc(O)cc1)C(=O)O [Tyr, L-Tyrosine] the IC50 [1] was 31.3 ± 9.3 mM, the “feedback inhibition by Tyr” value ([1]; up to 8 mM Tyr in assays) was “insensitive to feedback inhibition by Tyr” and the IC50 [2] was 32.1 ± 10 mM. The “feedback inhibition by Tyr” value ([2]; up to 8 mM Tyr in assays) was “insensitive to feedback inhibition by Tyr”, the Tyr inhibition [3] was “insensitive to Tyr inhibition” and the IC50 [4] was 15.5 ± 0.8 mM. The “IC50 (Tyr), in words” value ([4]; sensitivity to Tyr) was “in the mM range”, the IC50 ([5]; substrate arogenate (1 mM)) was 2.2 ± 0.5 mM and the IC50 ([5]; substrate prephenate (0.8 mM)) was 0.6 ± 0.1 mM. For the same compound, the “IC50 (Tyr), in words” value ([5]; sensitivity to Tyr) was “in the mM range”, the IC50 [6] was 12.8 mM and the IC50 [7] was 0.038 mM. The “inhibition by Tyr” value [8] was “not inhibited by Tyr”, the IC50 ([9]; substrate arogenate (1 mM)) was 5.9 ± 0.5 mM and the IC50 ([9]; substrate prephenate (0.8 mM)) was 11.1 ± 1.2 mM. The “sensitivity to Tyr inhibition” value [10] was “significantly less sensitive to Tyr inhibition”, the “sensitivity to Tyr inhibition” value [11] was “significantly less sensitive to Tyr inhibition” and the Tyr sensitivity [12] was “Tyr insensitive”. The Tyr sensitivity [13] was “sensitive to Tyr”.
